# Several values for one entry are separate records, joined by “and”; a condition that tells them apart may be missing. Equal entries are not always repeated. Activity calls are given as the source filed them. How the source made its calls: active means viability on the fitted dose curve at most 10% of control; inactive means the rest.
# Tested on: NCI-H1618 multicellular tumor spheroid viability
# Test: Anticancer human tumor NCI-H1618 cell line growth inhibition;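 further: spheroids exposed to agents for 7 days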
# Conditions: for viability, T/C: stronger effect = lower value
# From the text: Multicellular complex tumor spheroid response to DNA repair inhibitors in combination with DNA-damaging drugs
# This study explores the anticancer activities of DNA-damaging drugs and inhibitors of DNA damage repair, both as single agents and in combinations. Complex tumor spheroids comprised of malignant cells, endothelial cells and mesenchymal stem cells served as an in vitro model for human solid tumors. This model system incorporates physiologically relevant features and patient-derived or established malignant cell lines with clinically relevant genetic alterations from many tumor types. Twenty-six patient-derived or established malignant cell lines were evaluated representing sarcoma, melanoma, small cell lung cancer (SCLC), non-small cell lung cancer (NSCLC), as well as bladder, ovarian and pancreatic cancers. The concentration ranges selected for each drug and investigational agent were based upon clinically achievable concentrations if the clinical Cmax of the agent was known.
# Compounds. The drugs and compounds olaparib (NSC753686), talazoparib (NSC767125), berzosertib (NSC777718), elimusertib (NSC800525), nedisertib (NSC802822), VX-984 (NSC792969), AZD-1390 (NSC803789), temozolomide (NSC362856), topotecan (NSC609699), trabectedin (NSC813783), staurosporine (NSC755774), and gemcitabine (NSC613327) were obtained from the National Cancer Institute (NCI) Developmental Therapeutics Program Chemical Repository. The FDA-approved anticancer drug set is available from the Developmental Therapeutics Program at https://dtp.cancer.gov/organization/dscb/obtaining/available_plates.htm. […] The stock solutions were prepared in dimethyl sulfoxide (DMSO, Sigma-Aldrich, St. Louis, MO, cat. D2650) at 400-fold the tested concentration and stored at -70 degrees C. Prior to their use, the stock solutions were diluted in fresh medium and the final DMSO concentration in the assay was 0.25% (v/v). All drugs and investigational agents were tested over a range starting from a high concentration at or near the clinical Cmax and decreasing in half-log increments. If the clinical Cmax for an agent had not been determined, the highest concentration tested was 10 microM.
# Cell Lines. The patient-derived cancer cell (PDC) lines: 156681-154-R-J1-PDC, 283228-195-R-J1-PDC, 287954-098-R-J1-PDC, 292921-168-R-J2-PDC, 349418-098-R-PDC, 425362-245-T-J1-PDC, 556581-035-R-J1-PDC, and BL0293-F563-PDC were received from the NCI Patient-Derived Models Repository (PDMR, https://pdmr.cancer.gov). The established cell lines HS-SY-2 (RRID:CVCL_8719), MPNST, and SYO-1 (RRID:CVCL_7146) were obtained from the Sloan Kettering Institute. The alveolar soft parts sarcoma cell line ASPS-1 (RRID:CVCL_S738) was established at the NCI and grown from internal seed stocks. The following established cell lines were purchased from the American Type Culture Collection (ATCC, Manassas, VA): G-401 (ATCC, cat. CRL-1441, RRID:CVCL_0270), SW982 (ATCC, cat. HTB-93, RRID:CVCL_1734), VA-ES-BJ (ATCC, cat. CRL-2138, RRID:CVCL_1785), NCI-H719 (ATCC, cat. CRL-5837, RRID:CVCL_1582), NCI-H196 (ATCC, cat. CRL-5823, RRID:CVCL_1509), NCI-H841 (ATCC, cat. CRL-5845, RRID:CVCL_1595), NCI-H1618 (ATCC, cat. CRL-5879, RRID:CVCL_1480), NCI-H1876 (ATCC, cat. CRL-5902, RRID:CVCL_1503), DMS 114 (ATCC, cat. CRL-2066; RRID:CVCL_1174), NCI-H211 (ATCC, cat. CRL-5824; RRID:CVCL_1529), and SW 1271 (ATCC, cat. CRL-2177, RRID:CVCL_1716). The small cell lung cancer cell line COR-L88 was purchased from Sigma-Aldrich (cat. 92031917-1VL, RRID:CVCL_1141). The non-small cell lung cancer cell lines NCI-H226 (RRID:CVCL_1544) and NCI-H322M (RRID:CVCL_1557) were established at the NCI and grown from internal seed stocks. Pooled donor human umbilical vein endothelial cells (HUVEC, Lonza, cat. CC-2519) and human mesenchymal stem cells (hMSC, Lonza, cat. PT-2501) were purchased from Lonza (Walkersville, MD).
# Cell Culture. All cells were maintained in an incubator at 37 degrees C and 5% CO2 with 95% humidity. […]
# [1] = curve of first compound, second compound 0.003 µM
# [2] = second compound 0.003 µM, first compound 0.00949 µM
# [3] = second compound 0.003 µM, first compound 0.03 µM
# [4] = second compound 0.003 µM, first compound 0.0949 µM
# [5] = second compound 0.003 µM, first compound 0.3 µM
# [6] = second compound 0.003 µM, first compound 0.949 µM
# [7] = second compound 0.003 µM, first compound 3 µM
structure (smiles),measurement,setting,value
Cn1ncnc1[C@H]1c2n[nH]c(=O)c3cc(F)cc(c23)N[C@@H]1c1ccc(F)cc1 + COc1cc2c(cc1O)CCNC21CSC2c3c(OC(C)=O)c(C)c4c(c3C(COC1=O)N1C(O)C3Cc5cc(C)c(OC)c(O)c5C(C21)N3C)OCO4,IC50,"curve of first compound, second compound 30 pM",45.4 nM
same,IC50,"curve of first compound, second compound 94.9 pM",< 9.49 nM
same,IC50,"curve of first compound, second compound 0.0003 µM",< 9.49 nM
same,IC50,"curve of first compound, second compound 0.000949 µM",< 9.49 nM
same,IC50,[1],< 9.49 nM
same,"viability, T/C","second compound 30 pM, first compound 0.00949 µM",95.5%
same,"viability, T/C","second compound 30 pM, first compound 0.03 µM",46.9%
same,"viability, T/C","second compound 30 pM, first compound 0.0949 µM",53%
same,"viability, T/C","second compound 30 pM, first compound 0.3 µM",10.2%
same,"viability, T/C","second compound 30 pM, first compound 0.949 µM",2.52%
same,"viability, T/C","second compound 30 pM, first compound 3 µM",3.76%
same,"viability, T/C","second compound 94.9 pM, first compound 0.00949 µM",44.3%
same,"viability, T/C","second compound 94.9 pM, first compound 0.03 µM",37.8%
same,"viability, T/C","second compound 94.9 pM, first compound 0.0949 µM",3.24%
same,"viability, T/C","second compound 94.9 pM, first compound 0.3 µM",2.22%
same,"viability, T/C","second compound 94.9 pM, first compound 0.949 µM",2.54%
same,"viability, T/C","second compound 94.9 pM, first compound 3 µM",4.25%
same,"viability, T/C","second compound 0.0003 µM, first compound 0.00949 µM",10.6%
same,"viability, T/C","second compound 0.0003 µM, first compound 0.03 µM",5.28%
same,"viability, T/C","second compound 0.0003 µM, first compound 0.0949 µM",2.76%
same,"viability, T/C","second compound 0.0003 µM, first compound 0.3 µM",2.88%
same,"viability, T/C","second compound 0.0003 µM, first compound 0.949 µM",3.67%
same,"viability, T/C","second compound 0.0003 µM, first compound 3 µM",2.53%
same,"viability, T/C","second compound 0.000949 µM, first compound 0.00949 µM",4.52%
same,"viability, T/C","second compound 0.000949 µM, first compound 0.03 µM",4.93%
same,"viability, T/C","second compound 0.000949 µM, first compound 0.0949 µM",3.71%
same,"viability, T/C","second compound 0.000949 µM, first compound 0.3 µM",4.08%
same,"viability, T/C","second compound 0.000949 µM, first compound 0.949 µM",3.69%
same,"viability, T/C","second compound 0.000949 µM, first compound 3 µM",4.06%
same,"viability, T/C",[2],2.91%
same,"viability, T/C",[3],4.29%
same,"viability, T/C",[4],5.46%
same,"viability, T/C",[5],2.85%
same,"viability, T/C",[6],3.44%
same,"viability, T/C",[7],2.38%
Cc1sc2c(c1C)C(c1ccc(Cl)cc1)=NC(CC(=O)Nc1ccc(O)cc1)c1nnc(C)n1-2 (stereo not given) + CC[C@@]1(O)C(=O)OCc2c1cc1n(c2=O)Cc2cc3c(CN(C)C)c(O)ccc3nc2-1,IC50,[1],453 nM
same,IC50,"curve of first compound, second compound 0.00949 µM",11 nM
same,IC50,"curve of first compound, second compound 0.03 µM",< 9.49 nM
same,IC50,"curve of first compound, second compound 0.0949 µM",< 9.49 nM
same,IC50,"curve of first compound, second compound 0.3 µM",< 9.49 nM
same,"viability, T/C",[2],96.6%
same,"viability, T/C",[3],85.2%
same,"viability, T/C",[4],89.1%
same,"viability, T/C",[5],61.3%
same,"viability, T/C",[6],27.2%
same,"viability, T/C",[7],1.67%
same,"viability, T/C","second compound 0.00949 µM, first compound 0.00949 µM",55.5%
same,"viability, T/C","second compound 0.00949 µM, first compound 0.03 µM",21.2%
same,"viability, T/C","second compound 0.00949 µM, first compound 0.0949 µM",29.5%
same,"viability, T/C","second compound 0.00949 µM, first compound 0.3 µM",2.24%
same,"viability, T/C","second compound 0.00949 µM, first compound 0.949 µM",0.92%
same,"viability, T/C","second compound 0.00949 µM, first compound 3 µM",0.93%
same,"viability, T/C","second compound 0.03 µM, first compound 0.00949 µM",1.53%
same,"viability, T/C","second compound 0.03 µM, first compound 0.03 µM",17%
same,"viability, T/C","second compound 0.03 µM, first compound 0.0949 µM",1.42%
same,"viability, T/C","second compound 0.03 µM, first compound 0.3 µM",1.1%
same,"viability, T/C","second compound 0.03 µM, first compound 0.949 µM",0.9%
same,"viability, T/C","second compound 0.03 µM, first compound 3 µM",0.76%
same,"viability, T/C","second compound 0.0949 µM, first compound 0.00949 µM",1.43%
same,"viability, T/C","second compound 0.0949 µM, first compound 0.03 µM",1.5%
same,"viability, T/C","second compound 0.0949 µM, first compound 0.0949 µM",1.55%
same,"viability, T/C","second compound 0.0949 µM, first compound 0.3 µM",0.99%
same,"viability, T/C","second compound 0.0949 µM, first compound 0.949 µM",0.71%
same,"viability, T/C","second compound 0.0949 µM, first compound 3 µM",15.8%
same,"viability, T/C","second compound 0.3 µM, first compound 0.00949 µM",1.23%
same,"viability, T/C","second compound 0.3 µM, first compound 0.03 µM",1.1%
same,"viability, T/C","second compound 0.3 µM, first compound 0.0949 µM",0.98%
same,"viability, T/C","second compound 0.3 µM, first compound 0.3 µM",0.97%
same,"viability, T/C","second compound 0.3 µM, first compound 0.949 µM",0.73%
same,"viability, T/C","second compound 0.3 µM, first compound 3 µM",0.63%
COc1cc2c(cc1O)CCNC21CSC2c3c(OC(C)=O)c(C)c4c(c3C(COC1=O)N1C(O)C3Cc5cc(C)c(OC)c(O)c5C(C21)N3C)OCO4 (stereo not given),"viability, T/C",compound 30 pM,95.9% [middle of 10 runs]
same,"viability, T/C",compound 0.0003 µM,5.95% [middle of 10 runs]
same,"viability, T/C",compound 0.000949 µM,3.52% [middle of 10 runs]
same,"viability, T/C",compound 0.003 µM,2.99% [middle of 10 runs]
same,IC50,"compound alone, run of 12/16/2019",0.124 nM [middle of 9 runs]
COc1ccc([C@@H](O)c2cc(-c3ncnc4cc(N5CCOCC5)ccc34)c(F)cc2Cl)nn1,"viability, T/C",compound 0.0316 µM,84% and 103% and 101%
same,"viability, T/C",compound 0.1 µM,109% and 97.9% and 84.5%
same,"viability, T/C",compound 0.316 µM,108% and 103% and 83.4%
same,"viability, T/C",compound 1 µM,98.4% and 98.8% and 76%
same,"viability, T/C",compound 3.16 µM,84.1% and 83% and 83.7%
same,"viability, T/C",compound 10 µM,22.8% and 78.7% and 32.8%
same,IC50,curve of compound,6000 nM and > 10000 nM and 6750 nM
O=C(c1cc(Cc2n[nH]c(=O)c3ccccc23)ccc1F)N1CCN(C(=O)C2CC2)CC1,"viability, T/C",compound 0.0949 µM,98.1% and 105% and 94.9%
same,outcome,compound 0.3 µM,inactive
same,"viability, T/C",compound 0.3 µM,103% and 90.6%
same,"viability, T/C",compound 0.949 µM,83.7% and 96.2% and 98.8%
same,"viability, T/C",compound 3 µM,23.2% and 98.6% and 91%
same,"viability, T/C",compound 9.49 µM,23.5% and 56.3% and 34.1%
same,"viability, T/C",compound 30 µM,25% and 3.78% and 9.4%
same,IC50,curve of compound,1820 nM and 10900 nM and 6890 nM

# Reference: PubChem BioAssay AID1845206 (Molecular Pharmacology Branch, DTP, NCI, 2023)
